Test results reported in PMC6207720, “Identification and antitumor activity of a novel inhibitor of the NIMA-related kinase NEK6” (Scientific Reports, 2018).

Tests used:
NCI-H1299 (lung) = assay: Cell-based cytotoxicity assay (ATPlite), NCI-H1299; details: Homo sapiens, NCI-H1299, 72 h, NA = not active (IC50 greater than 100 µM), read-out: IC50 Values (µM ± SEM)
From the text: (§1) The following human carcinoma cell lines were used for the study: MDA-MB-231 and MCF-7 (breast cancer; ATCC, Sesto San Giovanni, MI), PEO1 and COV318 (ovarian cancer; ECACC, Salisbury, UK and ATCC), HCT-15 and SW948 (colon cancer; Public Health England, Salisbury, UK and ATCC), NCI-H1975 and NCI-H1299, (lung cancer; ATCC). Cells were routinely tested free of mycoplasma (MycoAlert mycoplasma detection kit, LONZA, Rockland, ME, USA) and validated by STR (Short Tandem Repeat) DNA profiling (BMR Genomics srl, PD). Cells were grown following supplier indication, in a fully humidified atmosphere of 5% CO2/95% air. All the reagents were purchased from Sigma-Aldrich (St. Louis, MO), if not otherwise specified.

NEK2 = biological target: T1, NEK2 (Homo sapiens, UniProt P51955); assay: Off-chip Mobility Shift Assay (MSA) profiling, NEK2; format: biochemical; details: ATP approximating Km
T1 sequence (P51955 1-445): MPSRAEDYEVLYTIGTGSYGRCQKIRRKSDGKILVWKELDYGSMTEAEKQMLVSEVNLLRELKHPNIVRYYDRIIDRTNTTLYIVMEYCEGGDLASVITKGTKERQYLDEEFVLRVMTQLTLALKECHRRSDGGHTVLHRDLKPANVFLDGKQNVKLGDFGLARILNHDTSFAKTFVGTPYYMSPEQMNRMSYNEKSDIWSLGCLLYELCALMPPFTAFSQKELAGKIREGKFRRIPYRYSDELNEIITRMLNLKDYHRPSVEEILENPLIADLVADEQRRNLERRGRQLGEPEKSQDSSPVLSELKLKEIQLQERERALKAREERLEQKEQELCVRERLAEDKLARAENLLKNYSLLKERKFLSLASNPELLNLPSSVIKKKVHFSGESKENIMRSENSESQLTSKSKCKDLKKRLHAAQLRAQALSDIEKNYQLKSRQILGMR
Method: Therefore, we decided to evaluate the selectivity of compound 8 against a panel of NEK kinases at 10 µM, using the technique of Off-chip Mobility shift assay. This concentration was chosen according to the guidelines proposed by Knight and Shokat, since the probability of off-target effects increases dramatically above 10 µM[36]. Furthermore, ATP concentration was set to approximate the Km,ATP for each kinase, so that the resulting selectivity profile directly reflects the intrinsic affinities of the inhibitor[37]. […] A major consequence of this substitution may be the redistribution of surface charges at the flexible activation loop resulting in an altered electrostatic potential and ability of NEK6 kinase to interact with other molecules.
The inhibitory activity of compounds 8 and 21 on NEK6 was also verified with MSA technique (Off-chip Mobility shift assay) (CARNA Biosciences Study ID: CBS170097, CARNA Biosciences, Kobe). […] PKR Inhibitor was used as positive control. For profiling study against NEK kinases (i.e. NEK1, NEK2, NEK6, NEK7, NEK9) (CARNA Biosciences Study ID: CBS170098), 8 was tested at 10 μM and ATP concentration approximating Km for each kinase. Assay condition for kinases are available on “Kinase profiling book” downloading by www.carnabio.com (https://www.carnabio.com/output/pdf/ProfilingProfilingBook_en.pdf).

MDA-MB-231 (breast) = assay: Cell-based cytotoxicity assay (ATPlite), MDA-MB-231; details: Homo sapiens, MDA-MB-231, 72 h, NA = not active (IC50 greater than 100 µM), read-out: IC50 Values (µM ± SEM)
From the text: as §1

- inhibition at 10 µM (NEK2): ≤ 0%
Structure (SMILES): CC1=C(C#N)C(O)=NC(=O)/C1=C\c1ccc(-c2ccccc2)o1 [Compound 8, (5Z)-2-hydroxy-4-methyl-6-oxo-5-[(5-phenylfuran-2-yl)methylidene]-5,6-dihydropyridine-3-carbonitrile]
- IC50 (NCI-H1299 (lung)): 87.8 ± 10 µM
- IC50 (MDA-MB-231 (breast)): 65 ± 15 µM
